One experiment deals with T1, IRAK1 (Homo sapiens, UniProt P51617).
T1 construct: purchased Eurofins DiscoverX KINOMEscan
The experiment can be described thus: KINOMEscan 1 μM, IRAK1. Conditions: 1000 nM; Entrez IRAK1; read-out: Percent Control. Format: binding. The text has this: (§1) Supplement cells-12-00287-s001.zip/File S2. KinomeScan data for the CAMKK2 probe and negative control.xlsx, sheet "SGC-CAMKK2-1" | column: Percent Control

A further experiment has as its target T2, MARK4 (Homo sapiens, UniProt Q96L34).
T2 construct: purchased Eurofins DiscoverX KINOMEscan
Nature of the experiment: KINOMEscan 1 μM, MARK4. Conditions: 1000 nM; Entrez MARK4; read-out: Percent Control. It is filed as binding.
From the text: as §1

In a further experiment the target is T3, STK33 (Homo sapiens, UniProt Q9BYT3).
T3 construct: purchased Eurofins DiscoverX KINOMEscan
T3 sequence (Q9BYT3 whole entry): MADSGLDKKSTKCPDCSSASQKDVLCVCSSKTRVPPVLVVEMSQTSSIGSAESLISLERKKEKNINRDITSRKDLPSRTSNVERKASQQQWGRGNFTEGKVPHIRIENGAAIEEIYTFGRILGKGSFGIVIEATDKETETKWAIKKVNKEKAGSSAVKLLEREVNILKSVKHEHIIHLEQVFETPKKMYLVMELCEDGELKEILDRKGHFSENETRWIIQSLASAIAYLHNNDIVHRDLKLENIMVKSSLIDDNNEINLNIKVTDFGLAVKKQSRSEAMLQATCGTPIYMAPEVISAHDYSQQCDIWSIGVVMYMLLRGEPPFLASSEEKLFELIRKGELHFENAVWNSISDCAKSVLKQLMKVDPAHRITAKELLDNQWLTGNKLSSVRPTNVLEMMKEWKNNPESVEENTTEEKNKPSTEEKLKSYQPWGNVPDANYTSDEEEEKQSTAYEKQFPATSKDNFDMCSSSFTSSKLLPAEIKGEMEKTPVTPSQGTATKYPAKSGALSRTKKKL
Nature of the experiment: KINOMEscan 1 μM, STK33. It is filed as binding. The following applies: 1000 nM; Entrez STK33; read-out: Percent Control.
From the text: as §1

The target of experiment [1] is T4, VRK2 (Homo sapiens, UniProt Q86Y07).
T4 construct: purchased Eurofins DiscoverX KINOMEscan
T4 sequence (Q86Y07 whole entry): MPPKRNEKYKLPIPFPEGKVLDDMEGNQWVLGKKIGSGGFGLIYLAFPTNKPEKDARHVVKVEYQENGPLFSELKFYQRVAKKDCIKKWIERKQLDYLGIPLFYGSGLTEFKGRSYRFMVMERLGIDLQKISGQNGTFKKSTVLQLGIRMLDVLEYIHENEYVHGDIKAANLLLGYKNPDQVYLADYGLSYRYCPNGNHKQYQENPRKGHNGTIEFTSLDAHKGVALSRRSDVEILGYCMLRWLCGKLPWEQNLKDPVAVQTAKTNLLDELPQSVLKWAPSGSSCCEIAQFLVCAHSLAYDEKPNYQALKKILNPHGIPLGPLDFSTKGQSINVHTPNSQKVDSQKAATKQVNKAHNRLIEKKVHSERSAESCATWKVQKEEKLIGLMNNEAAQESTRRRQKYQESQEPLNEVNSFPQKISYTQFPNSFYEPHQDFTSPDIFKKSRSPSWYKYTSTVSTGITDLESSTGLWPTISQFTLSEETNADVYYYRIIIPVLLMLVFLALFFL
Nature of the experiment: DiscoverX KINOMEscan binding assay at 1 μM, VRK2. The following applies: Compound Concentration 1000 nM, read-out: Percent Control.
From the text: as §1

In a further experiment the target is T5, FAK (Homo sapiens, UniProt Q05397).
T5 construct: purchased Eurofins DiscoverX KINOMEscan
Nature of the experiment: KINOMEscan 1 μM, FAK. Conditions: 1000 nM; Entrez PTK2; read-out: Percent Control. It is filed as binding.
From the text: as §1

The next experiment concerns the target T6, TRKA (Homo sapiens, UniProt P04629).
T6 construct: purchased Eurofins DiscoverX KINOMEscan
The experiment can be described thus: DiscoverX KINOMEscan binding assay at 1 μM, TRKA. Conditions: TRKA (NTRK1); Compound Concentration 1000 nM; read-out: Percent Control.
From the text: as §1

The target of another experiment is T7, PRKD2 (Homo sapiens, UniProt Q9BZL6).
T7 construct: purchased Eurofins DiscoverX KINOMEscan
Nature of the experiment: DiscoverX KINOMEscan binding assay at 1 μM, PRKD2. The following applies: Compound Concentration 1000 nM, read-out: Percent Control.
From the text: as §1

The target of another experiment is T8, ERBB2 (Homo sapiens, UniProt P04626).
T8 construct: purchased Eurofins DiscoverX KINOMEscan
Nature of the experiment: KINOMEscan 1 μM, ERBB2. Format: binding. Conditions: 1000 nM; Entrez ERBB2; read-out: Percent Control.
From the text: as §1

For another experiment, the target named is T9, EGFR (Homo sapiens, UniProt P00533).
T9 construct: purchased Eurofins DiscoverX KINOMEscan
T9 sequence (P00533 25-1210): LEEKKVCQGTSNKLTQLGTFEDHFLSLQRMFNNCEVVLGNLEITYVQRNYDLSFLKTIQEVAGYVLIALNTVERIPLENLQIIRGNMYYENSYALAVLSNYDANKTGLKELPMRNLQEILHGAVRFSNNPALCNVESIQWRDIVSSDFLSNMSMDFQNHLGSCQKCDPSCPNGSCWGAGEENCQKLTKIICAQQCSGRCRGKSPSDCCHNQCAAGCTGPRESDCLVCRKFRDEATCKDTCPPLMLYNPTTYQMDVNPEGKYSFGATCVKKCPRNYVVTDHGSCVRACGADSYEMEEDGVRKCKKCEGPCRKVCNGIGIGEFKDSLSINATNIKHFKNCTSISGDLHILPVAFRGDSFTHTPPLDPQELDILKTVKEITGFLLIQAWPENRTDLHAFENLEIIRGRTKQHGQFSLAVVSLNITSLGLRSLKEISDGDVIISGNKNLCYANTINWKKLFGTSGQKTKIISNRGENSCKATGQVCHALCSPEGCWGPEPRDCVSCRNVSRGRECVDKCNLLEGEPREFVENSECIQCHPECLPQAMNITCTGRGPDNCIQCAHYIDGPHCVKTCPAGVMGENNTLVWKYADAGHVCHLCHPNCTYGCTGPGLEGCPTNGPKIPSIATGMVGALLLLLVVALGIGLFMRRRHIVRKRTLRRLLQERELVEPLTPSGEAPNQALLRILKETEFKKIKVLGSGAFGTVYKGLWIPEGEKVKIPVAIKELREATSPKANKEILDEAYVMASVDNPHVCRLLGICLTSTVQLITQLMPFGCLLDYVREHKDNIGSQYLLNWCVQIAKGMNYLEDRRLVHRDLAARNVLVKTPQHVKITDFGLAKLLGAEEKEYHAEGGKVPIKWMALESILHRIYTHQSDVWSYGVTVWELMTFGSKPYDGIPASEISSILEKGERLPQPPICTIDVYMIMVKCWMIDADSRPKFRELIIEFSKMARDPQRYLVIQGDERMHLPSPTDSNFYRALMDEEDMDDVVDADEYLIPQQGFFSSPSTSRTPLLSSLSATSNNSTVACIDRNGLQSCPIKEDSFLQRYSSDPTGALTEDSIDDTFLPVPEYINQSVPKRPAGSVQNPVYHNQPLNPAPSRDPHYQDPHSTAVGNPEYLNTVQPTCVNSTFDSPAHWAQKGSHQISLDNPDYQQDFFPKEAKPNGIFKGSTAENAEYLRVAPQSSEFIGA
Nature of the experiment: KINOMEscan 1 μM, EGFR. It is filed as binding. Conditions: 1000 nM; Entrez EGFR; read-out: Percent Control.
From the text: as §1

Experiment [2] concerns the target T10, ABL1(Q252H)-phosphorylated (Homo sapiens, UniProt P00519, Q252H).
T10 construct: purchased Eurofins DiscoverX KINOMEscan
Nature of the experiment: KINOMEscan 1 μM, ABL1(Q252H)-phosphorylated. Format: binding. The following applies: 1000 nM; Entrez ABL1; read-out: Percent Control.
From the text: as §1

Experiment [3] deals with T11, RSK4(Kin.Dom.1-N-terminal) (Homo sapiens, UniProt Q9UK32).
T11 construct: RSK4(Kin.Dom.1-N-terminal); purchased Eurofins DiscoverX KINOMEscan
T11 sequence (Q9UK32 1-400 limits assumed): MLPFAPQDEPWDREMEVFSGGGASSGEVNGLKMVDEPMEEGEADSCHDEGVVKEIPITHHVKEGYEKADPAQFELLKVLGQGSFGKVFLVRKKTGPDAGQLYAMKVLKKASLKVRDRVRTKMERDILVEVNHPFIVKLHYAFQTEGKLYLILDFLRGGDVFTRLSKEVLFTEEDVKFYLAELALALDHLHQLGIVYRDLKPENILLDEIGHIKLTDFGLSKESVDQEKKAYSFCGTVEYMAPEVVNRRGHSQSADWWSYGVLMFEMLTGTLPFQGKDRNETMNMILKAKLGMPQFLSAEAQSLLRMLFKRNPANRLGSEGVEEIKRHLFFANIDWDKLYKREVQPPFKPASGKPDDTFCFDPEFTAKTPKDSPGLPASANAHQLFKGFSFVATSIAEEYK
Nature of the experiment: DiscoverX KINOMEscan binding assay at 1 μM, RSK4(Kin.Dom.1-N-terminal). Conditions: RSK4(Kin.Dom.1-N-terminal) (RPS6KA6); Compound Concentration 1000 nM; read-out: Percent Control.
From the text: as §1

Experiment [4] has as its target T12, EGFR(L747-S752del, P753S) (Homo sapiens, UniProt P00533, DEL747-752/P753S).
T12 construct: purchased Eurofins DiscoverX KINOMEscan
Nature of the experiment: KINOMEscan 1 μM, EGFR(L747-S752del, P753S). Format: binding. Conditions: 1000 nM; Entrez EGFR; read-out: Percent Control.
From the text: as §1

The next experiment deals with T13, PCTK1 (Homo sapiens, UniProt Q00536).
T13 construct: purchased Eurofins DiscoverX KINOMEscan
The experiment can be described thus: DiscoverX KINOMEscan binding assay at 1 μM, PCTK1. The following applies: PCTK1 (CDK16); Compound Concentration 1000 nM; read-out: Percent Control.
From the text: as §1

The next experiment has as its target T14, KIT(L576P) (Homo sapiens, UniProt P10721, L576P).
T14 construct: purchased Eurofins DiscoverX KINOMEscan
Nature of the experiment: KINOMEscan 1 μM, KIT(L576P). Format: binding. Conditions: 1000 nM; Entrez KIT; read-out: Percent Control.
From the text: as §1

The target in the next experiment is T15, GCN2(Kin.Dom.2,S808G) (Homo sapiens, UniProt Q9P2K8, S808G).
T15 construct: GCN2(Kin.Dom.2,S808G); purchased Eurofins DiscoverX KINOMEscan
T15 sequence (Q9P2K8 590-1001 S808G limits assumed): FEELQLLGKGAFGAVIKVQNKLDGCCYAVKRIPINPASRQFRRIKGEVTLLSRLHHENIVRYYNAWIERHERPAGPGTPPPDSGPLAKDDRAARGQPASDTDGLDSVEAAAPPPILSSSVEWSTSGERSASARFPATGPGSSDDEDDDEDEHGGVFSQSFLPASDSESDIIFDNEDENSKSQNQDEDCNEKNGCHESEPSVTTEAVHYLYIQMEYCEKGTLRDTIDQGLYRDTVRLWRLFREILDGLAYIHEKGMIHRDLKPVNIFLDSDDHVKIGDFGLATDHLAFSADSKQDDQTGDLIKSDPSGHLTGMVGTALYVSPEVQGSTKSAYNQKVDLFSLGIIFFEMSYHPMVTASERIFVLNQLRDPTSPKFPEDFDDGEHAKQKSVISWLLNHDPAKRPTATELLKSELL
Nature of the experiment: KINOMEscan 1 μM, GCN2(Kin.Dom.2,S808G). Format: binding. The following applies: 1000 nM; Entrez EIF2AK4; read-out: Percent Control.
From the text: as §1

The next experiment has as its target T16, PIKFYVE (Homo sapiens, UniProt Q9Y2I7).
T16 construct: purchased Eurofins DiscoverX KINOMEscan
Nature of the experiment: KINOMEscan 1 μM, PIKFYVE. Format: binding. Conditions: 1000 nM; Entrez PIKFYVE; read-out: Percent Control.
From the text: as §1

Another experiment has as its target T17, MEK4 (Homo sapiens, UniProt P45985).
T17 construct: purchased Eurofins DiscoverX KINOMEscan
The experiment can be described thus: KINOMEscan 1 μM, MEK4. It is filed as binding. The following applies: 1000 nM; Entrez MAP2K4; read-out: Percent Control.
From the text: as §1

The next experiment addresses T18, DAPK1 (Homo sapiens, UniProt P53355).
T18 construct: purchased Eurofins DiscoverX KINOMEscan
Nature of the experiment: KINOMEscan at 1 μM, DAPK1. It is filed as binding. Conditions: 1000 nM, read-out: Percent Control. The source says:
(§2) Supplement cells-12-00287-s001.zip/File S2. KinomeScan data for the CAMKK2 probe and negative control.xlsx, sheet "SGC-CAMKK2-1N" | column: Percent Control

The target of another experiment is T19, MAP4K2 (Homo sapiens, UniProt Q12851).
T19 construct: purchased Eurofins DiscoverX KINOMEscan
The experiment can be described thus: KINOMEscan at 1 μM, MAP4K2. It is filed as binding. Conditions: 1000 nM, read-out: Percent Control.
From the text: as §2

The target of the next experiment is T20, SNRK (Homo sapiens, UniProt Q9NRH2).
T20 construct: purchased Eurofins DiscoverX KINOMEscan
Nature of the experiment: KINOMEscan binding assay at 1 μM, SNRK. Conditions: Compound Concentration 1000 nM; read-out: Percent Control.
From the text: as §2

In the next experiment the target is T21, BMPR1A (Homo sapiens, UniProt P36894).
T21 construct: purchased Eurofins DiscoverX KINOMEscan
The experiment can be described thus: KINOMEscan at 1 μM, BMPR1A. It is filed as binding. Conditions: 1000 nM, read-out: Percent Control.
From the text: as §2

For a further experiment, the system named is FLT3(ITD). The experiment can be described thus: KINOMEscan at 1 μM, FLT3(ITD). Format: binding, human. Conditions: 1000 nM.
From the text: as §2

Another experiment addresses T22, FGFR3(G697C) (Homo sapiens, UniProt P22607, G697C).
T22 construct: purchased Eurofins DiscoverX KINOMEscan
The experiment can be described thus: KINOMEscan at 1 μM, FGFR3(G697C). Format: binding. Conditions: 1000 nM, read-out: Percent Control.
From the text: as §2

The target in a further experiment is T23, MYLK (Homo sapiens, UniProt Q15746).
T23 construct: purchased Eurofins DiscoverX KINOMEscan
The experiment can be described thus: KINOMEscan at 1 μM, MYLK. It is filed as binding. Conditions: 1000 nM, read-out: Percent Control.
From the text: as §2

Experiment [5] concerns the target T4, VRK2. The experiment can be described thus: KINOMEscan at 1 μM, VRK2. The following applies: 1000 nM, read-out: Percent Control. Format: binding.
From the text: as §2

In the next experiment the target is T24, PRKCE (Homo sapiens, UniProt Q02156).
T24 construct: purchased Eurofins DiscoverX KINOMEscan
Nature of the experiment: KINOMEscan binding assay at 1 μM, PRKCE. The following applies: Compound Concentration 1000 nM; read-out: Percent Control.
From the text: as §2

A further experiment deals with T25, CDKL1 (Homo sapiens, UniProt Q00532).
T25 construct: purchased Eurofins DiscoverX KINOMEscan
The experiment can be described thus: KINOMEscan at 1 μM, CDKL1. It is filed as binding. The following applies: 1000 nM, read-out: Percent Control.
From the text: as §2

The target of a further experiment is T26, IKK-epsilon (Homo sapiens, UniProt Q14164).
T26 construct: purchased Eurofins DiscoverX KINOMEscan
Nature of the experiment: KINOMEscan at 1 μM, IKK-epsilon. Format: binding. Conditions: 1000 nM, read-out: Percent Control.
From the text: as §2

The target in the next experiment is T27, YANK2 (Homo sapiens, UniProt Q9NY57).
T27 construct: purchased Eurofins DiscoverX KINOMEscan
Nature of the experiment: KINOMEscan binding assay at 1 μM, YANK2. The following applies: Compound Concentration 1000 nM; read-out: Percent Control.
From the text: as §2

The target of another experiment is T28, TTK (Homo sapiens, UniProt P33981).
T28 construct: purchased Eurofins DiscoverX KINOMEscan
Nature of the experiment: KINOMEscan at 1 μM, TTK. It is filed as binding. Conditions: 1000 nM, read-out: Percent Control.
From the text: as §2

For a further experiment, the target named is T29, NEK5 (Homo sapiens, UniProt Q6P3R8).
T29 construct: purchased Eurofins DiscoverX KINOMEscan
T29 sequence (Q6P3R8 whole entry): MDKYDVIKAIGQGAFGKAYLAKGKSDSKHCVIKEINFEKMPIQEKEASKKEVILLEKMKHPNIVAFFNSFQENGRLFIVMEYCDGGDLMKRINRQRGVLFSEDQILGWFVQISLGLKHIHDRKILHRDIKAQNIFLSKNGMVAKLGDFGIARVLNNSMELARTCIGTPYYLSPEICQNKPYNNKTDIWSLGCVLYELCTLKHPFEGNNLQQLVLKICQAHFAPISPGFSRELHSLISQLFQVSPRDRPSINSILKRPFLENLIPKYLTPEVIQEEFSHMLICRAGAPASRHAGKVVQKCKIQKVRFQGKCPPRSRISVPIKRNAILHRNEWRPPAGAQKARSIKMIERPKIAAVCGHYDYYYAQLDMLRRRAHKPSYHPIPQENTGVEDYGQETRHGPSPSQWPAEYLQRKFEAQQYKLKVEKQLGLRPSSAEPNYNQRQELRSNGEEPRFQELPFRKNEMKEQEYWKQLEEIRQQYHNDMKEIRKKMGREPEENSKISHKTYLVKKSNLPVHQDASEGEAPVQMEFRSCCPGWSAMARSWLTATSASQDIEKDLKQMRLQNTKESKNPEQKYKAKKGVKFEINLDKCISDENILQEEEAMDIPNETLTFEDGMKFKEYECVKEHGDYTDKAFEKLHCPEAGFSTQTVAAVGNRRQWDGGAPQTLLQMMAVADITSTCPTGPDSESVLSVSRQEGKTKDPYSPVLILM
Nature of the experiment: KINOMEscan at 1 μM, NEK5. It is filed as binding. Conditions: 1000 nM, read-out: Percent Control.
From the text: as §2

The target of the next experiment is T30, p38-delta (Homo sapiens, UniProt O15264).
T30 construct: purchased Eurofins DiscoverX KINOMEscan
The experiment can be described thus: KINOMEscan at 1 μM, p38-delta. It is filed as binding. The following applies: 1000 nM, read-out: Percent Control.
From the text: as §2

T12 sequence (P00533 with tags, fused parts or gaps DEL747-752/P753S limits assumed): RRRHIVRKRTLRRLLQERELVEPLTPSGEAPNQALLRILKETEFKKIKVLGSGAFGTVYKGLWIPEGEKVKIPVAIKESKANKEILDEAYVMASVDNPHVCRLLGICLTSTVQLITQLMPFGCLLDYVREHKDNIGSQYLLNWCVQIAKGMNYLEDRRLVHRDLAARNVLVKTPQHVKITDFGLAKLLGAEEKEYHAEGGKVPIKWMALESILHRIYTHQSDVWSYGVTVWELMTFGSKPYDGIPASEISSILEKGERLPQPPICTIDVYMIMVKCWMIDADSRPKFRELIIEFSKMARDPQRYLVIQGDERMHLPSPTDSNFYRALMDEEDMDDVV
T6 sequence (P04629 33-796): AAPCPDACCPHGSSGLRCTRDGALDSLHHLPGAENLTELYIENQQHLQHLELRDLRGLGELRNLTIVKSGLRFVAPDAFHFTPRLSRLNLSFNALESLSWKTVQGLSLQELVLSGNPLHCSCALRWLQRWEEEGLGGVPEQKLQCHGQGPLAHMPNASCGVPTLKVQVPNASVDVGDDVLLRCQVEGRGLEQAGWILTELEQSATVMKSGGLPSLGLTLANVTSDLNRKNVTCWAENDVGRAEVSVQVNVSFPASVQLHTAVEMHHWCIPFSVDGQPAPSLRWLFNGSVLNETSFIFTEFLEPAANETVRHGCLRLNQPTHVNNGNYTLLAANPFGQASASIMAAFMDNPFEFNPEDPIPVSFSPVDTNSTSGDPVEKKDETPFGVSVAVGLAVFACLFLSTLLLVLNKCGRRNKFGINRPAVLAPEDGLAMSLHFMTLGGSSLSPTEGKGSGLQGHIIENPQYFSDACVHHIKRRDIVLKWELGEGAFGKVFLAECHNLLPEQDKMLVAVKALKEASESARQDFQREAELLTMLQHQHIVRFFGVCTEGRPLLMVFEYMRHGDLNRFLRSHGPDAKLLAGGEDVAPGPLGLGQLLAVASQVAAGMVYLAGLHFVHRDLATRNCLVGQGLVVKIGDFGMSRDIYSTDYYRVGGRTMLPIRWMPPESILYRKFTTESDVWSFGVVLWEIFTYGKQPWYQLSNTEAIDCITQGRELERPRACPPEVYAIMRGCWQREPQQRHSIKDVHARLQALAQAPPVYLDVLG

Regarding `Cc1cccc(-c2cnc3occ(-c4ccc(C(=O)O)c(C5CCCC5)c4)c3c2)c1` [SGC-CAMKK2-1 (YL-36)], the remaining binding at 1 µM on IRAK1 is 100%; on MARK4 it was 100%; on STK33 it was 98%; at VRK2 [1], 100%; on FAK it was 92%; on TRKA, 100%. In addition, the remaining binding at 1 µM on PRKD2 stood at 100%; on ERBB2, 100%; on EGFR, 91%; in experiment [2] it was 96%; in experiment [3] it was 100%; in experiment [4] it was 59%. In addition, the remaining binding at 1 µM at PCTK1 stood at 100%; on KIT(L576P), 100%; at GCN2(Kin.Dom.2,S808G), 42%; at PIKFYVE, 80%; at MEK4, 100%.

On to `O=C(O)c1ccc(-c2coc3ncc(-c4ccccc4)cc23)cc1Cl` [SGC-CAMKK2-1N (UNC-YL-83)], for which the remaining binding at 1 µM at DAPK1 is 100%; at MAP4K2, 77%; at SNRK, 100%; at BMPR1A, 93%; on FGFR3(G697C) it was 65%; at MYLK, 69%. For the same compound, the remaining binding at 1 µM on VRK2 [5] worked out at 58%; at PRKCE it was 100%; on CDKL1 it was 72%; on IKK-epsilon it was 98%; at YANK2, 100%; on TTK, 54%. Moreover, the remaining binding at 1 µM was 93% at NEK5 and 98% on p38-delta. The “Percent Control” value in the experiment on FLT3(ITD) was found to be 81.

The values are drawn from publication PMC9856672, “SGC-CAMKK2-1: A Chemical Probe for CAMKK2” (Cells, 2023).
